Compound | melting point
CCCCc1ncc(/C=C(\Cc2ccc([N+](=O)[O-])cc2)C(=O)O)n1Cc1ccccc1Cl | 207 to 208 °C
c1csc(-c2cccc3c(-c4cccs4)cccc23)c1 | 193 to 195 °C
CC(=O)Oc1ccc2cc(-c3ccc(C(=O)O)cc3)ccc2c1 | 254 to 256 °C
O=C(Nc1ccncc1)c1n[nH]c2ccc(-c3cncc4[nH]ccc34)cc12 | > 250 °C
NCc1cc(CN)cc(CN)c1 | 49 to 51 °C
COc1ccc(C(=O)COc2ccc(NC3=NCCN3)cc2)cc1 | 65.5 to 69 °C
Cc1ccc(-c2noc3c(Cl)c(OCC(=O)O)ccc23)o1 | 217 to 219 °C
CCC(COC)n1cc(Cl)nc(N2CCc3cc(OC)c(F)c(Cl)c32)c1=O (centres undefined) | 140 to 142 °C
C=CCNc1nc(C)c(C(=O)c2ccc(Cl)c([N+](=O)[O-])c2)s1 | 154 to 156 °C
OC(Cn1cncn1)(c1ccc(F)cc1F)C1(SC(F)(F)F)CC1 (centres undefined) | 103 °C
N/C(=C1\C(=O)c2cc(Cl)ccc2S1=O)c1ccccc1Cl (centres undefined) | 248 °C
CC(C)N1CC(OCC2CC2)(C(F)(F)F)c2cc(Cl)ccc2NC1=O (centres undefined) | 170 °C
CC(C)NC(=O)c1cc2nc(C3CC3)n(C)c2c(Cl)c1NC(=O)c1cc(C(F)(F)F)nn1-c1ncccc1Cl | 242 to 244 °C
CC1(C2CCCC2)Cc2cc(OCCCCC(=O)O)c(Cl)c(Cl)c2C1=O (centres undefined) | 106 to 108 °C
Clc1ccc(Nc2nnc(-c3ccc(-c4ccccc4)cc3)s2)cc1Cl | 306 °C
NC(=O)c1nnn(Cc2cc(Cl)c(S(=O)c3ccc(Cl)cc3)c(Cl)c2)c1N (centres undefined) | 195 to 197 °C
Cc1ccc(-c2nnc(N3CCC(CO)CC3)nc2-c2ccc(C)cc2)cc1 | 152 to 154 °C
COC(=O)c1nc(N2CCCC2)ccc1O | 82.5 to 84 °C
CC(=O)OCCCCC#Cc1ccc2c3ccc4c5c(ccc(c6cccc1c62)c53)C(=O)N(c1c(C(C)C)cccc1C(C)C)C4=O | > 300 °C
Cc1nc2cccc(O)c2o1 | 152 to 154 °C
C=C(COC(=O)Oc1ccc([N+](=O)[O-])cc1)C(=O)OCC | 42 to 43 °C
CN1CCC2(CC1)c1ccccc1C(O)c1ccccc12 | 208 to 210 °C
C=CCN(CC=C)c1nc(NC(=O)OCC)n2oc(=O)nc2n1 | 172 to 174 °C
CCOCc1nc2c(N)nc3c(c2n1CC1(O)CCCC1)CCCC3 | 171 to 173 °C
CCOC(=O)Cc1cc(C(=O)OC)ccc1NC(C)=O | 119 °C
CCCCCCCCCCCCCCCCCCOc1cc(OCCCOc2ccc(C(C)(C)C)cc2)cc(N(CC(=O)O)CC(=O)O)c1 | 99 to 101 °C

Compound | melting point
COc1cc(F)cc2c1-c1c(F)cc(F)cc1C2=O | 164 to 166 °C
Cc1nnc(SCCCC(=O)NC/C=C\COc2cc(CN3CCCCC3)ccn2)s1 | 65 to 68 °C
Nc1nc2c(s1)CCN(CC=Cc1ccccc1OCc1ccccc1)CC2 | 103 to 107 °C
O=[N+]([O-])c1c(OS(=O)(=O)C(F)(F)F)nc2ccccc2c1OS(=O)(=O)C(F)(F)F | 74.5 to 76 °C
N#Cc1nccn1Cc1cccs1 | 64 to 65 °C
Cn1c(Sc2ccccc2)c(C=NO)c(=O)n(C)c1=O | 152 °C
N#Cc1ccc(-c2ccc(O)c(C=O)c2)cc1 | 144 °C
CC(=O)NCc1c(C)cc(CO)cc1C | 194 °C
N#Cc1nn(C2CCCC2)c2nc(-c3ccncc3)nc(N)c12 | 219 to 221 °C
N#CC(C(=O)c1ccc(Cl)cc1)=C1CCCN1C(=O)c1ccc(Cl)cc1 | 218 °C
CCOC(=O)CNC(=O)c1ccc(N)cc1 | 93 to 94 °C
COC(=O)CN1CC(=O)NC1=NN=Cc1ccccc1 | 149 to 153 °C
CC(C)n1nc(-c2c(-c3ccccc3)nn3ccc(OCC(=O)OCc4ccccc4)cc23)ccc1=O | 174 °C
Fc1ccc(-c2cc(C(F)(F)F)n3cnc(-c4ccncc4)c3n2)cc1Cl | 266 °C
CCOC(C)n1c(Cl)c(Cl)c(C#N)c1-c1ccc(Cl)c(Cl)c1 (centres undefined) | 124 to 126 °C
CCc1cc2c(cc1Cl)C=C(C(=O)O)C(C(F)(F)F)O2 (centres undefined) | 171 to 172 °C
CCc1cnc2c(c1)C=Cc1cccnc1N2 | 95 to 97 °C
Cc1ccc(-c2c(-c3ccc(S(C)(=O)=O)cc3)cnn(-c3ccc(F)c(F)c3)c2=O)cc1F | 204 to 206 °C
COC(=O)CCCc1cc2c(Cl)c(C#N)cnc2s1 | 55 to 57 °C
CC(=O)OCCn1cnc2c(Cl)nc(Nc3ccccc3)nc21 | 193 to 194 °C
O=c1cc(-c2cc[nH]n2)oc2ccc(Cl)cc12 | 217 to 219 °C
Clc1ccc(-c2cc3ncnc(Nc4ccc5[nH]ccc5c4)c3s2)cc1 | 190 to 210 °C
CC1(C)Cc2c(c(N3CCCC3)nc3sc4c(NCCCN5CCCC5=O)ncnc4c23)CO1 | 217 °C
O=C(NC1CCC(c2cc(Nc3cccc(C(F)(F)F)c3)n[nH]2)C1)c1ccccn1 (centres undefined) | 162 °C
CCC(O)c1cc(C)nc(Oc2c(C)cc(C)cc2C)c1C (centres undefined) | 119 to 120 °C
CCC(=O)Nc1c(C(=O)c2cccc(Cl)c2)[nH]c2ccc(Cl)cc12 | 206 to 208 °C

Compound | melting point
N[C@H]1CC[C@H](CC(=O)N2CCN(c3ccccc3)CC2)CC1 | 90 to 93 °C
COc1ccc(CCNC(=O)CCCCC(=O)NCCc2cccc3ccccc23)cc1OC | 156 to 157 °C
c1cn(CCCc2ccc(OCc3coc(-c4ccsc4)n3)cc2)cn1 | 102 to 103 °C
CC1NC(=O)NN=C1c1ccccc1OCc1ccccc1 (centres undefined) | 200 to 203 °C
CS(=O)Cc1cc(C(F)(F)F)ccc1N (centres undefined) | 122 to 125 °C
COc1ccccc1-n1c(=O)[nH]c2c(C(N)=O)nc(-n3cnc4ccccc43)nc21 | 318 to 319 °C
CS(=O)(=O)c1cccc(NC(=O)c2cnn3c(C(F)(F)F)cc(-c4ccc(C(F)(F)F)c(Cl)c4)nc23)c1 | 268 °C
Cc1ccc2c(O)cc(=O)oc2c1 | 179 to 182 °C
COc1ccc(CN(C(=O)C2CCCc3c(O)cccc32)c2ccc(C(C)C)cc2)c(OC)n1 (centres undefined) | 190 °C
Cc1c(C(=O)NCC(=O)O)oc2cc(-c3ccc(Cn4c(C)nc5ccccc54)cc3)ccc12 | 248 to 250 °C
CC1(C)OCc2cccc(Cc3c[nH]cn3)c2O1 | 160 to 170 °C
Cc1nc(N2CCN(Cc3ccccc3)C2=O)sc1C(=O)NCc1cc(F)cc(F)c1 | 208 to 209 °C
COC(C)=CC(=O)NC1CCCCCC1 | 120 °C
CCOCc1nc2cnc3cc(-c4ccccc4)ccc3c2n1CC1CCN(C(=O)OC(C)(C)C)CC1 | 166 to 167 °C
COc1ccc(OC)c2c1C=C(C(=O)O)CC2 | < 220 °C
COc1ccc(COC(=O)CCc2nc(-c3ccc(Cl)cc3)co2)cc1 | 69 to 70 °C
O=C1CCCNc2ccc(Cl)cc21 | 103 to 104 °C
CCCCC[C@H]1CO[C@H](c2ccc(C(=O)O)cc2)OC1 | 210 to 211 °C
CC(C)(CNc1ccc(C2=NNC(=O)CC2)cc1)NCC(O)COc1ccccc1 (centres undefined) | 147 to 148 °C
O=C1N=CC(OCc2ccccc2)(C(F)(F)F)c2cc(Cl)ccc2N1 (centres undefined) | 177 to 178 °C
CCOC(=O)N1CCC(=C2c3cc(F)ccc3CCc3cccnc32)CC1 | 112 to 114 °C
NC(=O)Cc1ccc2c(c1)C(=O)Cc1cccnc1S2 | 215 to 216 °C
CCOC(=O)c1cccc2c1Cc1c-2[nH]c2ccc(Cl)cc12 | 202 to 204 °C
Nc1nonc1-c1nc2ccccc2n1COc1ccc(F)cc1 | 155 to 158 °C
CC(C)n1cc(-c2ncc(N)nc2-c2ccc(F)cc2)ccc1=O | 258 °C
O=C1Cc2ccnc(N3CCNCC3)c2N1 | 200 to 204 °C

Compound | melting point
CN1CC(CCN2CCOCC2)N(C)c2nc3ccccc3n2C1=O (centres undefined) | 149 to 152 °C
COC(=O)Cc1cc2c(cc1CC(=O)NCCc1cccc(OC)c1)OCO2 | 81 to 83 °C
CCOC(=O)C12CCC(=O)N1CC(=O)N2 (centres undefined) | 116 °C
CCOC(=O)C1=C(C)NC(C)=C(c2nnco2)C1c1cccc(Cl)c1Cl (centres undefined) | 187 to 189 °C
Cn1c2cc(Cl)ccc2c2c(=O)[nH]c(-c3ccncc3)nc21 | > 300 °C
CN(CCCO)C(=O)c1cc2ccccc2c(-c2ccccc2I)n1 | 51 to 52 °C
COc1ccccc1C(=O)COc1cccc(NC(=O)c2ccccn2)c1 | 136 to 137 °C
CC(C)c1ccc(S(=O)(=O)n2c(Cc3ccc(C(=O)O)s3)cc3cc(C(F)(F)F)ccc32)cc1 | 199 to 216 °C
CCCC(O)c1cc(-c2ccc(C(F)(F)F)n(C)c2=O)c(F)cc1Cl (centres undefined) | 120 to 122 °C
Cc1ccc(Sc2ccc(C(=O)O)cc2)cc1 | 105 to 107 °C
CCCCCCCCCCCCCCCCCCNC(=O)C=Cc1ccc(O)cc1 | 114 °C
COc1cc(OC)cc(N2CCN(C(=O)Nc3cc4c(nc3OC)CCC4)CC2)c1 | 143 to 144 °C
O=Cc1cc2c(s1)-c1ccccc1OC2C1=CCCC=C1 (centres undefined) | 117 to 118 °C
O=[N+]([O-])c1cc(O)c(Cl)cc1F | 106 to 107 °C
O=C1C(c2cccn2-c2ccccc2)=CC(=O)c2ncccc21 | 132 to 134 °C
FC(F)(F)C(c1ccc(Cl)cc1)C(c1ccccc1)c1ccc(OCC2CO2)cc1 (centres undefined) | 141 to 144 °C
Cc1ccc2c(c1)NCc1ccccc1O2 | 84 to 86 °C
CCCN(CCC)C(=O)CCC(=O)O | 35 to 37 °C
CC(C)(O)CC1NC(=O)c2ccccc21 (centres undefined) | 122 to 123 °C
CC(C)(C)OC(=O)N1CCN(c2nccs2)CC1 | 114 to 116 °C
CCS(=O)(=O)c1cc(C(=O)NCC2CCCN2C)c(OC)cc1N (centres undefined) | 126 to 127 °C
CNc1ccc(C(=O)OC)c(F)n1 | 156 to 159 °C
COC(=O)c1cc(N=Cc2ccccc2)ccc1OC(C)=O | 101 to 103 °C
CCOC(=O)c1ccc2c(SC(=O)N3CCSCC3)cccn2c1=O | 146 to 148 °C
O=C(O)Cc1ccc(Oc2ccc(F)cc2)cc1 | 87 to 89 °C
COCc1nc2cc3c(cc2c(=O)[nH]1)C(Nc1ccc(C(=O)OC(C)(C)C)cc1)CC3 (racemic) | > 122 °C
